# Test results from US12076307B2, “Compositions for prevention or treatment of acute radiation syndrome and other radiation exposure” (priority 2017, dated 2024).
# Tests used:
# hERG channel = hERG channel (Homo sapiens, UniProt Q12809); assay: In vitro hERG channel inhibition; conditions: for hERG channel current suppression rate (compensated suppression rate): HEK-293 cells
# [1] = system: Balb/c mice, 6.11 Gy gamma-radiation; assay: Radiation-induced pneumonitis mouse model: lung damage; format: in vivo; conditions: 50 or 250 mg/kg daily Day 0 to 3
# Protocol: To examine the effect of EC-18 on the lung damage in pneumonitis, female Balb/c mice (n=3/group) were exposed to 6.11 Gy of gamma-radiation at Day 0. EC-18 at 50 or 250 mg/kg was administered daily from Day 0 to 3. To verify the vascular leakage of the lung due to radiation exposure, Evans blue staining was diluted with PBS and injected i.v. into mice 30 mins before sacrificing them on Day 3 (FIG. 56).
# The further microscopical analysis was conducted by extracting the lung after sacrificing the mice. The perfused lung tissues were fixed in 10% buffered formalin for 24 hrs, embedded in paraffin, sectioned at 4 μm, and stained with hematoxylin and eosin (H&E) staining. […] In contrast, the infiltration of the RBCs into the lung tissues was not observed in both the EC-18-treated group.
# [2] = Fertility and early embryonic developmental toxicity study; format: in vivo, rat; conditions: both sexes, SD, rat, in vivo; both males and females
# Source text: (§1) Various toxicology studies have been performed. All studies were GLP-compliant unless otherwise noted.
# SD rat [3] = assay: as above; format: in vivo; conditions: Oral; 0, 500, 1000, 2000 mg/kg
# Source text: as §1
# Guinea pig = assay: Antigenicity test; format: in vivo; conditions: Oral; 2 weeks; 500, 2000 mg/kg; 2000 mg/kg + FCA
# Source text: as §1
# [4] = system: RIPK1/3-MLKL-mediated necroptosis pathway; assay: Necroptosis signaling and DAMP release in HaCaT cells treated with CM or rhHMGB1; format: cell-based, human
# Protocol: An additional experiment was tested for assessing whether EC-18 treatment leads to early termination of the RIPK1/3-MLKL-mediated downstream necroptosis pathway. This was performed by using DAMP-containing conditioned media (CM) harvested from HaCaT cells, irradiated for 48 hrs, and analyzed after 2 or 72 hrs of EC-18 treatment. […] To further confirm that DAMPs in CM contribute to the activation of a necroptosis signaling pathway in a paracrine manner, recombinant human HMGB1 (rhHMGB1) was treated directly to the normal HaCaT cells. The rhHMGB1 elevated the phosphorylation of RIPK1/3 and MLKL after 2 hrs and subsequently released HMGB1 and HSP90 (FIGS. 35C-35D). To evaluate whether EC-18 mitigates the activation of RIPK1/3 and MLKL, 10 or 100 μg/mL of EC-18 was treated before the addition of CM or rhHMGB1. As a result, EC-18 lowered the phosphorylation of RIPK/3 and MLKL in both CM- and rhHMGB1-treated cells after 2 hrs. Release of HMGB1 and Hsp90 was also subsided by EC-18 after 72 hrs of post addition of CM or rhHMGB1 to the cells (FIGS. 35A-35D). TLR4-induced necroptosis signaling pathway caused by DAMP release produces cytokines, such as CXCL8, a chemotactic cytokine for neutrophils. As CXCL8 increases upon tissue damage, it was measured in cells treated with CM or rhHMGB1 as a measure of inflammation. […]
# [5] = system: Balb/c mice, γ-Radiation TBI; assay: Survival after total body irradiation 6.5-10 Gy (Example 4); format: in vivo, mouse; conditions: 250 mg/kg/day PO
# Source text: In order to evaluate effects of PLAG on survival rates of animal models exposed to radiation, the following test groups were constructed as shown in Table 3 and results are shown in FIG. 7B, and FIG. 8-12. As discussed in Examples above, the first group of untreated group (negative control) of ARS-induced mice after radiation was compared to the second group of treated group of ARS-induced mice with PLAG after radiation.
# [6] = Repeated dose toxicity, SD rat; format: in vivo; conditions: SD, rat, in vivo, Oral
# Source text: as §1
# SD rat [7] = assay: Repeated dose toxicity, SD rat; format: in vivo; conditions: Oral
# Source text: as §1
# [8] = system: Balb/c mice, whole body radiation 1 Gy; assay: Blood immune cell counts (CBC) in radiation-induced leukopenia (RIL) ARS model; format: in vivo, mouse
# Source text: Balb/c mice (9-week-old male) were purchased from Koatech (Pyeongtaek, Republic of Korea) and maintained in a specific pathogen-free (SPF) environment to establish an animal model of acute radiation syndrome. In order to evaluate the effect of PLAG on the reduction of immune cells by radiation, the following three groups were constructed for this study. (1) normal control group (positive control); (2) Radiotherapy-Radiation induced leukopenia (RIL) group (negative control group); And (3) RIL+PLAG treated group (experimental group).
# Specifically, mice treated with RIL and […] were exposed to whole body radiation at 1 Gy (100 rad=1.06 min). For the RIL+PLAG treatment group, 50 mg/kg/day of PLAG (Enzychem Lifesciences Co., Daejeon, Republic of Korea) was orally administered daily for 4 consecutive days after irradiation. The normal controls were not exposed to radiation. On the 5th day after irradiation, blood samples were collected, and then Complete Blood Count (CBC) was measured using a Mindray BC-5300 auto hematology analyzer (Shenzhen Mindray Bio-medical Electronics, China) so that the number of blood leukocytes, neutrophils and lymphocytes in blood could be counted (FIG. 1).
# [9] = RIL + PLAG 50 mg/kg/day oral 4 days, day 5, n=3
# Chain of hERG channel (Q12809 whole entry): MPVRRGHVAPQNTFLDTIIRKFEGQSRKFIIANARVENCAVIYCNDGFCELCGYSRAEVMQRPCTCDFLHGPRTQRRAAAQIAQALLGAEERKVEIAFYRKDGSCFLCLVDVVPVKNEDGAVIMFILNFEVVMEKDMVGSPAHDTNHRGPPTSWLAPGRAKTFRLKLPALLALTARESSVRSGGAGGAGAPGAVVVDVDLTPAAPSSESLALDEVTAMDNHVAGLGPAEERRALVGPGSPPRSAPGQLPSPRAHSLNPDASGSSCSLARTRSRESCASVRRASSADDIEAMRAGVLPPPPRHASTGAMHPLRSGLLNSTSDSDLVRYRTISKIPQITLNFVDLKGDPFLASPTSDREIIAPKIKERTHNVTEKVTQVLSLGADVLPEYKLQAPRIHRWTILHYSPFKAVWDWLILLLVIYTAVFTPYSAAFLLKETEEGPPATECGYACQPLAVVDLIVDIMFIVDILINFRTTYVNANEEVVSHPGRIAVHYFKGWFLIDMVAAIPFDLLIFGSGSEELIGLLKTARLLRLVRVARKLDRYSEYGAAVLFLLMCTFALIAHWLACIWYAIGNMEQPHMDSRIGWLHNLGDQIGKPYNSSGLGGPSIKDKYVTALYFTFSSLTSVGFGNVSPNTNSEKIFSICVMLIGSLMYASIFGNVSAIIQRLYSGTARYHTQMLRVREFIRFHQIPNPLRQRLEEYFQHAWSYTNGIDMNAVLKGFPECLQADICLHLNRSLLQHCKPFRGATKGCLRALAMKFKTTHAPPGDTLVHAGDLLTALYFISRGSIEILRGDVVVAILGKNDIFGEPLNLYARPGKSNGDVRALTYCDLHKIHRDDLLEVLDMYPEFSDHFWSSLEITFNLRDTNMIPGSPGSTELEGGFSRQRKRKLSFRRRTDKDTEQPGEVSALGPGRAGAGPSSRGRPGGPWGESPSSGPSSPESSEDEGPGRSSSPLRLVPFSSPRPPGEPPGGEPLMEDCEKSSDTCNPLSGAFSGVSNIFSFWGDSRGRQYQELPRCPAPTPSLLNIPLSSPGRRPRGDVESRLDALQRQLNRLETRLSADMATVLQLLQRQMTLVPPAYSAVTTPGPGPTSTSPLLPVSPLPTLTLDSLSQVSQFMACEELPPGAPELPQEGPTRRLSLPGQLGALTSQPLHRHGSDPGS
compound,measurement,setting,value
"CCCCC/C=C\C/C=C\CCCCCCCC(=O)OC(COC(C)=O)COC(=O)CCCCCCCCCCCCCCC (centres unmarked) [EC-18, 1-palmitoyl-2-linoleoyl-3-acetylglycerol]",hERG channel current suppression rate (compensated suppression rate),hERG channel; 125 μM,1.39%
same,hERG channel current suppression rate (compensated suppression rate),hERG channel; 250 μM,2.97%
same,hERG channel current suppression rate (compensated suppression rate),hERG channel; 500 μM,2.54%
same,hERG channel current suppression rate (compensated suppression rate),hERG channel; 1000 μM,2.90%
same,hERG channel current inhibition,hERG channel; concentrations up to 1000 μM,did not inhibit the hERG channel current
same,infiltration of RBCs into the lung tissues (H&E),[1],not observed
same,vascular leakage of the lung (Evans blue),[1],mitigated the vascular leakage
same,NOAEL,[2],2000 mg/kg/day
same,mortality,SD rat [3],No dead animals
same,anaphylaxis reaction / antigenicity,Guinea pig,No anaphylaxis reaction
same,phosphorylation of RIPK1/3 and MLKL,"[4]; 10 or 100 μg/mL before CM or rhHMGB1, after 2 hrs",lowered
same,release of HMGB1 and Hsp90,"[4]; 10 or 100 μg/mL, 72 hrs after CM or rhHMGB1",subsided
same,survival rate vs untreated mice,"[5]; 6.5 Gy TBI, BALB/c 9 weeks old",improved
same,survival rate vs untreated mice,"[5]; 6.5 Gy TBI, BALB/c 11 weeks old",improved
same,survival rate vs untreated mice,"[5]; 7 Gy TBI, 9 weeks old",improved until about day 15
same,survival rate vs untreated mice,"[5]; 8 Gy TBI, 9 weeks old",improved until about day 14
same,survival rate vs untreated mice,"[5]; 10 Gy TBI, 9 weeks old",improved until about day 9
same,NOAEL at 4 weeks,[6]; 4 weeks (DRF),> 2000 mg/kg/day
same,NOAEL at 13 weeks,[6]; 13 weeks,> 2000 mg/kg/day
same,NOAEL at 26 weeks,[6]; 26 weeks (4-week recovery),> 2000 mg/kg/day
same,findings,SD rat [7]; 4 weeks (DRF),No specific findings
same,mortality,"SD rat [7]; 4 weeks (DRF), 0, 500, 1000, 2000 mg/kg",No dead animals
same,findings,SD rat [7]; 13 weeks,No specific findings
same,mortality,"SD rat [7]; 13 weeks, 0, 500, 1000, 2000 mg/kg",No dead animals
same,findings,SD rat [7]; 26 weeks (4-week recovery),No specific findings
same,mortality,"SD rat [7]; 26 weeks (4-week recovery), male in 500 mg/kg group, 41st day, no relationship to EC-18 dosing",A single case of death
same,increase of blood leukocyte count vs RIL group,"[8]; PLAG 50 mg/kg/day, day 5",63%
same,increase of blood lymphocyte count vs RIL group,"[8]; PLAG 50 mg/kg/day, day 5",85%
same,increase of blood neutrophil count vs RIL group,"[8]; PLAG 50 mg/kg/day, day 5",34%
same,Lymphocyte,[8]; [9],2.2±0.42 10^3/μL
same,Neutrophils,[8]; [9],1.17±0.35 10^3/μL
same,White blood cells,[8]; [9],3.56±0.84 10^3/μL
